This note sets out measurements from patent US10168338B2, “Methods of identifying modulators of sestrin-gator-2 interaction for modulating mTORC1 activity” (Whitehead Institute for Biomedical Research, priority 2014, dated 2019).

Assay [1] concerns mTORC1. Put plainly: mTORC1 signaling in HEK-293T cells (S6K1 phosphorylation immunoblot). Conditions: Homo sapiens; HEK-293T starved of leucine 50 minutes, restimulated 10 minutes; read-out: half-maximal effect on mTORC1 activity in cells. The format is cell-based, human. The procedure: Immunoprecipitated proteins were denatured by the addition of 50 μl of sample buffer and boiling for 5 minutes as described (Kim et al., 2002), resolved by 8%-16% SDS-PAGE, and analyzed by immunoblotting using the appropriate antibody (antibodies to phospho-T389 S6K1, S6K1, Sestrin2, mTOR, Mios and FLAG all obtained from Cell Signaling Technology; antibodies to WDR24 and WDR59 were generously provided by Jianxin Xie at Cell Signaling Technology).
In order to determine the effect of amino acids on the GATOR2-Sestrin interaction, transfected cells were incubated in amino acid free RPMI for 50 minutes and then stimulated with amino acids for 10 minutes. For glucose starvation, cells were incubated in RPMI media lacking glucose but containing amino acids and dialyzed serum for 50 minutes, followed by a 10 minute restimulation with 5 mM D-Glucose. For insulin deprivation, cells were incubated in RPMI without serum for 50 minutes and restimulated with 1 μg/ml insulin for 10 minutes. Finally, when Torin1 or Rapamycin was used, cells were incubated with 250 nM of each throughout the starvation and restimulation period.
(In general: A western blot detects proteins with antibodies after separation by electrophoresis.)

In assay [2] the target is T1, Sestrin2 (Homo sapiens, UniProt P58004).
T1 construct: expressed in transfected cells; host or cells: HEK-293T, transient transfection of a pRK5-based cDNA plasmid, anti-FLAG immunoprecipitation
T1 sequence (P58004 1-480): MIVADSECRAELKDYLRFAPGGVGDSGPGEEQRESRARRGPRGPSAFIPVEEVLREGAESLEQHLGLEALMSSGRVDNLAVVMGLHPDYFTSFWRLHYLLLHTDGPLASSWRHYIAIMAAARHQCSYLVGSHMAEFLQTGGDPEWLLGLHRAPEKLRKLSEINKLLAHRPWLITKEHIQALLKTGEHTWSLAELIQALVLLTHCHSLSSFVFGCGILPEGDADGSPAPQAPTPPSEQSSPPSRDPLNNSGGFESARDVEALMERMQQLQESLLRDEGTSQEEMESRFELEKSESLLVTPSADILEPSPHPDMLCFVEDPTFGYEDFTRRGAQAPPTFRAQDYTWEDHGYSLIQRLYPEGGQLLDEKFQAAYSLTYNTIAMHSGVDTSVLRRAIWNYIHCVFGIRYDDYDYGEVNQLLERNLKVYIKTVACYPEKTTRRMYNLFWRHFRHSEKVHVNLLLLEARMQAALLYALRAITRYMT
Put plainly: [3H]-labeled amino acid binding to FLAG-Sestrin2 immunoprecipitated from HEK-293T cells. The procedure: Four million HEK-293T cells were plated in a 15 cm plate four days prior to the experiment. Each plate yielded the protein for one sample. Forty-eight hours after plating, the cells were transfected via the polyethylenimine method (O. Boussif et al., PNAS (USA), 92:7297-7301 (1995)) with the pRK5-based cDNA expression plasmids indicated in the figures in the following amounts: 5 μgFLAG-Sestrin2; 12 μg of the negative control Rap2A; 5 μg WDR24; 2 μg WDR24 with 4 μg each of HA-Seh1L, HA-Sec13, HA-Mios, and HA-WDR59; 12 […] (CG11299-PD); 12 μgFLAG-Sestrin1.1; 12 μg FLAG-Sestrin1.2; 12 μg FLAG-Sestrin3; 12 μg FLAG-Sestrin2 mutants (L261A, E451A, S190A) and up to 20 μg total DNA with empty-PRK5. Forty-eight hours after transfection cells were lysed as described in Example 1. If multiple samples of the same type were represented in the experiment, the cell lysates were combined, mixed, and evenly distributed amongst the relevant tubes, to ensure equal protein amounts across samples of the same type.
Anti-FLAG immunoprecipitates were prepared as previously described, with the exception that, prior to incubation with lysates, the beads were blocked by rotating in 1 μg/μl bovine serum albumin (BSA) for 20 minutes at 4° C. and subsequently washed twice in lysis buffer. Thirty μl of the 50/50 slurry of beads in lysis buffer was added to each of the clarified cell lysates and incubated as previously described in Example 1.
For the binding assays, two tubes at a time were washed as previously indicated for immunoprecipitations. All the liquid was subsequently aspirated and a 15 μl aliquot of proteins bound to the beads was incubated for one hour on ice in cytosolic buffer (0.1% Triton, 40 mM HEPES pH 7.4, 10 mM NaCl, 150 mM KCl, 2.5 mM MgCl2) with the appropriate amount of [^3H]-labeled amino acids and unlabeled amino acids. Tubes were flicked every five minutes. At the end of one hour, the beads were briefly spun down, aspirated dry, and rapidly washed three times with binding wash buffer (0.1% Triton, 40 mM HEPES pH 7.4, 150 mM NaCl). The beads were aspirated dry again and resuspended in 85 μl of binding wash buffer. With a cut tip, each sample was mixed well and three 10 μl aliquots were separately quantified using a TriCarb® scintillation counter (PerkinElmer). This process was repeated in pairs for each sample, to ensure similar incubation and wash times for all samples analyzed across different experiments.
Amino acid affinities to Sestrin2 were determined by first normalizing the bound [^3H]-labeled amino acid concentrations across three separate binding assays performed with varying amounts of unlabeled amino acid competition. These values were plotted and fit to a hyperbolic equation ([…]) to estimate the IC50 value. Kd or Ki values were derived from the IC50 value using the equation: Kd or Ki=IC50/(1+([[^3H]Leucine])/Kd).

For the compound `CC(C)C[C@H](N)C(=O)O` [leucine], the EC50 in assay [1] is 20 to 40 µM. Further, the “binding of radiolabeled amino acid to Sestrin2” value in assay [2] (FLAG-Sestrin2 from HEK-293T, competed by excess unlabeled leucine) is “bound to Sestrin2”. Moreover, binding in assay [2] (competition with unlabeled leucine, 10 μM 3H-leucine, three experiments) was put at a Kd of 20 ± 5 µM.
